In US20260070945A1, “MACROCYCLIC IMMUNOMODULATORS” (Bristol-Myers Squibb Company, priority 2022, published 2026) one finds IC50 data, which are given here for 11 molecules.

Where a SMILES comes first, the peptide text is derived from it. Bridges are numbered along the chain shown (N, C = ends). [ ]: non-standard residue; d: D form. The star is where a group is joined. ξ: configuration not given here. Phe(3-CF3) = N[C@@H](Cc1cccc(C(F)(F)F)c1)C(=O)O; Phe(4-CF3) = N[C@@H](Cc1ccc(C(F)(F)F)cc1)C(=O)O; Phe(4-COOH) = N[C@@H](Cc1ccc(C(=O)O)cc1)C(=O)O; Bip = N[C@@H](Cc1ccc(-c2ccccc2)cc1)C(=O)O; NH(CH2)14COOH = O=C(O)CCCCCCCCCCCCCCN*; Phe(3-Me) = Cc1cccc(C[C@H](N)C(=O)O)c1; NH(CH2)12COOH = O=C(O)CCCCCCCCCCCCN*; Val(3-OH) = CC(C)(O)[C@H](N)C(=O)O; Cha = N[C@@H](CC1CCCCC1)C(=O)O; Cit = NC(=O)NCCC[C@H](N)C(=O)O; Thr(3ξ) = CC(O)[C@H](N)C(=O)O; Carboxymethyl = O=C(O)C*; NMeA = CN[C@@H](C)C(=O)O; Dab = NCC[C@H](N)C(=O)O; AEEA = NCCOCCOCC(=O)O; CF3 = FC(F)(F)*

The target of this assay is T1, PD-1/PD-L1 interaction (PE-labeled human PD-L1-Ig binding to Jurkat cell line over-expressing human PD-1) (Homo sapiens, UniProt Q15116).
T1 construct: expressed in transfected cells; host or cells: Jurkat
T1 sequence (Q15116 25-288): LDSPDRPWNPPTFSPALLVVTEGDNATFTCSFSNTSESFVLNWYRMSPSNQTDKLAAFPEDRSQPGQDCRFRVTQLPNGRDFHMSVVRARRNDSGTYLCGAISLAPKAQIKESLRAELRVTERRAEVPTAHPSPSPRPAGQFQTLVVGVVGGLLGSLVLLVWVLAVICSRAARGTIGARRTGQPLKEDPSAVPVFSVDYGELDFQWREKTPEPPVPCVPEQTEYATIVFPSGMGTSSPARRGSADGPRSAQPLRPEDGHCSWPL
As to the kind of experiment: Jurkat-PD-1 Cell Binding High-Content Screening Assay (CBA). The settings on record: PE-labeled PD-L1-Ig 20 nM final, Jurkat-hPD-1 cells; read-out: Jurkat HPD1 PDL1 IC50. Summed up: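 Binding of 20 nM (final) PE-tagged PD-L1-Ig to compound-pretreated Jurkat-hPD-1 cells was measured by high-content imaging after 1 h. Pretreatment ran 2 h at 37 °C in DMEM with 10% fetal calf serum.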
As for `CC(C)C[C@H]1NC(=O)[C@H](C)N(C)C(=O)[C@H](Cc2ccc(C(=O)O)cc2)NC(=O)[C@H](Cc2ccc(-c3ccccc3)cc2)NC(=O)[C@H](Cc2ccc(C(=O)O)cc2)NC(=O)[C@H](Cc2cccc(C(F)(F)F)c2)NC(=O)[C@H](CC(=O)O)NC(=O)[C@H](Cc2ccc(C(=O)O)cc2)NC(=O)[C@H](C(C)O)NC(=O)CSC[C@@H](C(=O)N[C@@H](CCN)C(=O)NCCOCCOCC(=O)NCCOCCOCC(=O)NCCCCCCCCCCCCCCC(=O)O)NC(=O)[C@H](CC(=O)O)NC(=O)[C@H](C(C)C)NC(=O)[C@H](CC2CCCCC2)NC(=O)[C@H](CCN)NC1=O` (stereo partly drawn) [Example 2616] ({CH2CO}-[Thr(3ξ)][Phe(4-COOH)]D[Phe(3-CF3)][Phe(4-COOH)][Bip][Phe(4-COOH)][NMeA][dL][Dab][Cha]VDC[Dab][AEEA][AEEA]-{NH(CH2)14COOH}; thioether N-14), the IC50 worked out at 427 nM.

In the case of `CC(=O)NCCCC[C@@H]1NC(=O)[C@H](C(C)(C)O)NC(=O)[C@H](CC2CCCCC2)NC(=O)[C@H](CCN)NC(=O)[C@@H](CC(C)C)NC(=O)[C@H](C)N(C)C(=O)[C@H](CCC(N)=O)NC(=O)[C@H](Cc2ccc(-c3ccccc3)cc2)NC(=O)[C@H](Cc2ccc(C(=O)O)cc2)NC(=O)[C@H](Cc2cccc(C(F)(F)F)c2)NC(=O)[C@H](CC(=O)O)NC(=O)[C@H](Cc2ccc(OCC(=O)O)cc2)NC(=O)[C@H](Cc2ccc(OCC(=O)O)cc2)NC(=O)CSC[C@@H](C(=O)N[C@@H](CCN)C(=O)NCCOCCOCC(=O)NCCCCCCCCCCCCC(=O)O)NC1=O` [Example 2617] ({CH2CO}-Y(Carboxymethyl)Y(Carboxymethyl)D[Phe(3-CF3)][Phe(4-COOH)][Bip]Q[NMeA][dL][Dab][Cha][Val(3-OH)]K(Ac)C[Dab][AEEA]-{NH(CH2)12COOH}; thioether N-14), the IC50 was found to be 20.1 nM.

On to `CC(=O)NCCCC[C@@H]1NC(=O)[C@H](C(C)(C)O)NC(=O)[C@H](CC2CCCCC2)NC(=O)[C@H](CCN)NC(=O)[C@@H](CC(C)C)NC(=O)[C@H](C)N(C)C(=O)[C@H](CCC(N)=O)NC(=O)[C@H](Cc2ccc(-c3ccccc3)cc2)NC(=O)[C@H](Cc2ccc(C(F)(F)F)cc2)NC(=O)[C@H](Cc2cccc(C)c2)NC(=O)[C@H](CC(=O)O)NC(=O)[C@H](Cc2ccc(OCC(=O)O)cc2)NC(=O)[C@H](Cc2ccc(OCC(=O)O)cc2)NC(=O)CSC[C@@H](C(=O)N[C@@H](CCN)C(=O)NCCCCCCCCCCCCCCC(=O)O)NC1=O` [Example 2618] ({CH2CO}-Y(Carboxymethyl)Y(Carboxymethyl)D[Phe(3-Me)][Phe(4-CF3)][Bip]Q[NMeA][dL][Dab][Cha][Val(3-OH)]K(Ac)C[Dab]-{NH(CH2)14COOH}; thioether N-14), for which the IC50 was found to be 210 nM.

As to `CC(=O)NCCCC[C@@H]1NC(=O)[C@H](C(C)(C)O)NC(=O)[C@H](CC2CCCCC2)NC(=O)[C@H](CCN)NC(=O)[C@@H](CC(C)C)NC(=O)[C@H](C)N(C)C(=O)[C@H](CCC(N)=O)NC(=O)[C@H](Cc2ccc(-c3ccccc3)cc2)NC(=O)[C@H](Cc2ccc(C(=O)O)cc2)NC(=O)[C@H](Cc2cccc(C)c2)NC(=O)[C@H](CC(=O)O)NC(=O)[C@H](Cc2ccc(OCC(=O)O)cc2)NC(=O)[C@H](Cc2ccc(C(F)(F)F)cc2)NC(=O)CSC[C@@H](C(=O)N[C@@H](CCN)C(=O)NCCCCCCCCCCCCC(=O)O)NC1=O` [Example 2619] ({CH2CO}-[Phe(4-CF3)]Y(Carboxymethyl)D[Phe(3-Me)][Phe(4-COOH)][Bip]Q[NMeA][dL][Dab][Cha][Val(3-OH)]K(Ac)C[Dab]-{NH(CH2)12COOH}; thioether N-14), the IC50 worked out at 43.9 nM.

For `CC(=O)NCCCC[C@@H]1NC(=O)[C@H](C(C)(C)O)NC(=O)[C@H](CC2CCCCC2)NC(=O)[C@H](CCN)NC(=O)[C@@H](CC(C)C)NC(=O)[C@H](C)N(C)C(=O)[C@H](CCC(N)=O)NC(=O)[C@H](Cc2ccc(-c3ccccc3)cc2)NC(=O)[C@H](Cc2ccc(C(=O)O)cc2)NC(=O)[C@H](Cc2cccc(C)c2)NC(=O)[C@H](CC(=O)O)NC(=O)[C@H](Cc2ccc(OCC(=O)O)cc2)NC(=O)[C@H](Cc2ccc(OC(F)(F)F)cc2)NC(=O)CSC[C@@H](C(=O)N[C@@H](CCN)C(=O)NCCCCCCCCCCCCC(=O)O)NC1=O` [Example 2620] ({CH2CO}-Y(CF3)Y(Carboxymethyl)D[Phe(3-Me)][Phe(4-COOH)][Bip]Q[NMeA][dL][Dab][Cha][Val(3-OH)]K(Ac)C[Dab]-{NH(CH2)12COOH}; thioether N-14), the IC50 was 72 nM.

In the case of `CC(=O)NCCCC[C@@H]1NC(=O)[C@H](C(C)(C)O)NC(=O)[C@H](CC2CCCCC2)NC(=O)[C@H](CCN)NC(=O)[C@@H](CC(C)C)NC(=O)[C@H](C)N(C)C(=O)[C@H](CCC(N)=O)NC(=O)[C@H](Cc2ccc(-c3ccccc3)cc2)NC(=O)[C@H](Cc2ccc(C(F)(F)F)cc2)NC(=O)[C@H](Cc2cccc(C)c2)NC(=O)[C@H](CC(=O)O)NC(=O)[C@H](Cc2ccc(OCC(=O)O)cc2)NC(=O)[C@H](Cc2ccc(OCC(=O)O)cc2)NC(=O)CSC[C@@H](C(=O)N[C@@H](CCN)C(=O)NCCCCCCCCCCCCC(=O)O)NC1=O` [Example 2621] ({CH2CO}-Y(Carboxymethyl)Y(Carboxymethyl)D[Phe(3-Me)][Phe(4-CF3)][Bip]Q[NMeA][dL][Dab][Cha][Val(3-OH)]K(Ac)C[Dab]-{NH(CH2)12COOH}; thioether N-14), the IC50 stood at 22.4 nM.

For `CC(=O)NCCCC[C@@H]1NC(=O)[C@H](C(C)(C)O)NC(=O)[C@H](CC2CCCCC2)NC(=O)[C@H](CCN)NC(=O)[C@@H](CC(C)C)NC(=O)[C@H](C)N(C)C(=O)[C@H](CCC(N)=O)NC(=O)[C@H](Cc2ccc(-c3ccccc3)cc2)NC(=O)[C@H](Cc2ccc(OCC(=O)O)cc2)NC(=O)[C@H](Cc2cccc(C(F)(F)F)c2)NC(=O)[C@H](CC(=O)O)NC(=O)[C@H](Cc2ccc(OCC(=O)O)cc2)NC(=O)[C@H](Cc2ccc(C(F)(F)F)cc2)NC(=O)CSC[C@@H](C(=O)N[C@@H](CCN)C(=O)NCCCCCCCCCCCCC(=O)O)NC1=O` [Example 2622] ({CH2CO}-[Phe(4-CF3)]Y(Carboxymethyl)D[Phe(3-CF3)]Y(Carboxymethyl)[Bip]Q[NMeA][dL][Dab][Cha][Val(3-OH)]K(Ac)C[Dab]-{NH(CH2)12COOH}; thioether N-14), the IC50 came out at 83.9 nM.

For the molecule `CC(=O)NCCCC[C@@H]1NC(=O)[C@H](C(C)(C)O)NC(=O)[C@H](CC2CCCCC2)NC(=O)[C@H](CCN)NC(=O)[C@@H](CC(C)C)NC(=O)[C@H](C)N(C)C(=O)[C@H](CCCNC(N)=O)NC(=O)[C@H](Cc2ccc(-c3ccccc3)cc2)NC(=O)[C@H](Cc2ccc(OCC(=O)O)cc2)NC(=O)[C@H](Cc2cccc(C(F)(F)F)c2)NC(=O)[C@H](CC(=O)O)NC(=O)[C@H](Cc2ccc(OCC(=O)O)cc2)NC(=O)[C@H](CCN)NC(=O)CSC[C@@H](C(=O)N[C@@H](CCN)C(=O)NCCCCCCCCCCCCCCC(=O)O)NC1=O` [Example 2623] ({CH2CO}-[Dab]Y(Carboxymethyl)D[Phe(3-CF3)]Y(Carboxymethyl)[Bip][Cit][NMeA][dL][Dab][Cha][Val(3-OH)]K(Ac)C[Dab]-{NH(CH2)14COOH}; thioether N-14), the IC50 came to 99.4 nM.

Regarding `CC(=O)NCCCC[C@@H]1NC(=O)[C@H](C(C)(C)O)NC(=O)[C@H](CC2CCCCC2)NC(=O)[C@H](CCN)NC(=O)[C@@H](CC(C)C)NC(=O)[C@H](C)N(C)C(=O)[C@H](CCCNC(N)=O)NC(=O)[C@H](Cc2ccc(-c3ccccc3)cc2)NC(=O)[C@H](Cc2ccc(OCC(=O)O)cc2)NC(=O)[C@H](Cc2cccc(C(F)(F)F)c2)NC(=O)[C@H](CC(=O)O)NC(=O)[C@H](Cc2ccc(OCC(=O)O)cc2)NC(=O)[C@H](Cc2ccc(OCC(=O)O)cc2)NC(=O)CSC[C@@H](C(=O)N[C@@H](CCN)C(=O)NCCCCCCCCCCCCCCC(=O)O)NC1=O` [Example 2624] ({CH2CO}-Y(Carboxymethyl)Y(Carboxymethyl)D[Phe(3-CF3)]Y(Carboxymethyl)[Bip][Cit][NMeA][dL][Dab][Cha][Val(3-OH)]K(Ac)C[Dab]-{NH(CH2)14COOH}; thioether N-14), the IC50 came to 77 nM.

Regarding `CC(C)C[C@H]1NC(=O)[C@H](C)N(C)C(=O)[C@H](CCCNC(N)=O)NC(=O)[C@H](Cc2ccc(-c3ccccc3)cc2)NC(=O)[C@H](Cc2ccc(OCC(=O)O)cc2)NC(=O)[C@H](Cc2cccc(C(F)(F)F)c2)NC(=O)[C@H](CC(=O)O)NC(=O)[C@H](Cc2ccc(OCC(=O)O)cc2)NC(=O)[C@H](Cc2ccc(OCC(=O)O)cc2)NC(=O)CSC[C@@H](C(=O)N[C@@H](CCN)C(=O)NCCCCCCCCCCCCCCC(=O)O)NC(=O)[C@H](CCC(=O)O)NC(=O)[C@H](C(C)(C)O)NC(=O)[C@H](CC2CCCCC2)NC(=O)[C@H](CCN)NC1=O` [Example 2625] ({CH2CO}-Y(Carboxymethyl)Y(Carboxymethyl)D[Phe(3-CF3)]Y(Carboxymethyl)[Bip][Cit][NMeA][dL][Dab][Cha][Val(3-OH)]EC[Dab]-{NH(CH2)14COOH}; thioether N-14), the IC50 was 190 nM.

As for `CC(=O)NCCCC[C@@H]1NC(=O)[C@H](C(C)(C)O)NC(=O)[C@H](CC2CCCCC2)NC(=O)[C@H](CCN)NC(=O)[C@@H](CC(C)C)NC(=O)[C@H](C)N(C)C(=O)[C@H](CCC(N)=O)NC(=O)[C@H](Cc2ccc(-c3ccccc3)cc2)NC(=O)[C@H](Cc2ccc(OCC(=O)O)cc2)NC(=O)[C@H](Cc2cccc(C(F)(F)F)c2)NC(=O)[C@H](CC(=O)O)NC(=O)[C@H](Cc2ccc(OCC(=O)O)cc2)NC(=O)[C@H](CC(C)C)NC(=O)CSC[C@@H](C(=O)N[C@@H](CCN)C(=O)NCCCCCCCCCCCCC(=O)O)NC1=O` [Example 2626] ({CH2CO}-LY(Carboxymethyl)D[Phe(3-CF3)]Y(Carboxymethyl)[Bip]Q[NMeA][dL][Dab][Cha][Val(3-OH)]K(Ac)C[Dab]-{NH(CH2)12COOH}; thioether N-14), the IC50 was determined as 9 nM.

By IC50 is commonly meant the concentration needed to halve the response being measured.
